This passage reports IC50 and AC50 results from patent US20250032477A1, “COMPOUNDS, PHARMACEUTICAL COMPOSITIONS, AND METHODS FOR THE TREATMENT, PREVENTION, OR MANAGEMENT OF HYPERPROLIFERATIVE DISORDERS” (VINCERX PHARMA GMBH, priority 2021, published 2025).

By AC50 is commonly meant the midpoint of the concentration-response curve, whichever way the signal moves.

Each structure is given as a SMILES string. Structures can show the parent of a compound that is named as a salt. Where two headings read alike, the source gives them in different places. A value given as a limit tells only on which side of the number the result lay.

The test system of assay [1] is SUM149. Description: Cytotoxicity in vitro in the presence and absence of elastase (MTT). The assay is classed as cell-based. The method, then:
(§1) Cultivation of cells was performed according to standard procedures with the media recommended by the provider. The cells, in a total volume of 100 μL, were seeded in a 96-well plate with a white bottom (#3610). After a 24 h incubation period at 37° C. and […], the medium was exchanged by adding 90 μL fresh medium. The treatment started by adding the test compound in 10 μL of culture medium to the cells in triplicates. Concentrations ranging from 10^−5 M to 10^−13 M were chosen. Two identically treated sets of samples were prepared. One set was treated with the test compound alone, whereas to the second set the compound and 10 nM elastase was added followed by a 72 h incubation period at 37° C. and 5% CO2. The proliferation was detected using the MTT assay (ATCC). At the end of the incubation period the MTT reagent was added to all samples for 4 h. Lysis of the cells followed by addition of the detergent was done overnight. The formed dye was detected at 570 nm. The proliferation of untreated but otherwise identically handled cells was define as the […].

The subject of assay [2] is NCI H292. The description is as above. The assay is classed as cell-based, human. The method, then: as §1
Assay [3] relates to 786-O. The assay is described as above. The format is cell-based, human. The method, then: as §1
The test system of assay [4] is HT29. The assay is described as above. The assay is classed as cell-based, human. As to the method: as §1
Assay [5] relates to SUM149. Description: Cytotoxicity assay (Version 2), automated, AC50, with or without elastase. The format is cell-based. The method, then: as §1
(§2) The Cytotoxicity assay (Version 2) was performed as above described. Some changes were applied as the assays were performed in an automated fashion and the IC50 values determination was changed. Here the change in metabolic activity of the cells, in percent, was calculated by normalization of the measured values to the absorbance values of medium containing wells without cells (=−100%) and the absorbance of the DMSO-treated cells (=0%). AC50 values (activity concentration at −50%) were determined by means of a 4 parameter Hill-fit using GeneData Screener software.

The test system of assay [6] is NCI H292. The assay is described as above. The format is cell-based, human. The method, then:
as §1, §2

Assay [7] relates to 786-O. The assay is described as above. The format is cell-based, human. The method, then: as §1, §2
Assay [8] deals with HT29. The assay is described as above. The assay is classed as cell-based, human. The method, then:
as §1, §2

Where [9] appears, read: read-out: SUM149 IC50 w elastase.
The mark [10] stands for this setting: read-out: NCI H292 IC 50 w elastase.
[11] abbreviates: read-out: 786-O IC50 w elastase.

Turning to `CCCNC(=O)Nc1cccc(S(=O)(=O)Nc2cccc([C@@H](CC(=O)O)NC(=O)Nc3ccc(NC(=O)NCCOCCOCCOCCC(=O)N[C@@H](CC(=O)O)C(=O)N4CCC[C@H]4C(=O)N[C@H](C(=O)O[C@]4(CC)C(=O)OCc5c4cc4n(c5=O)Cc5c-4nc4cc(F)c(C)c6c4c5[C@@H](NC(=O)OCc4ccccc4)CC6)C(C)C)cc3)c2)c1` [Compound 3, (1S,9S)-1-{[(benzyloxy)carbonyl]amino}-9-ethyl-5-fluoro-4-methyl-10,13-dioxo-2,3,9,10,13,15-hexahydro-1H,12H-benzo[de]pyrano[3′,4′:6,7] indolizino[1,2-b]quinolin-9-yl N-(14-{4-[({(1R)-2-carboxy-1-[3-({3-[(propylcarbamoyl)amino]benzene-1-sulfonyl}amino)phenyl]ethyl}carbamoyl)amino]anilino}-14-oxo-4,7,10-trioxa-13-azatetradecanan-1-oyl)-L-alpha-aspartyl-L-prolyl-L-valinate], the IC50 is 0.01 to 0.1 nM in the assay with SUM149 [1] (setting [9]); 10 to 100 nM in the assay on SUM149 [1] (read-out: SUM149 IC50 w/o); 0.01 to 0.1 nM with NCI H292 [2] (setting [10]); 1.1 to 10 nM in the assay on NCI H292 [2] (read-out: NCI H292 IC 50 w/o); 0.1 to 1 nM in the assay with 786-O [3] (setting [11]); 10 to 100 nM in the assay with 786-O [3] (read-out: 786-O IC50 w/o). Further, the results for the IC50 with HT29 [4] (read-out: HT29 IC50 w elastase) and with HT29 [4] (read-out: HT29 IC50 w/o) were 0.1 to 1 nM and more than 100 nM, respectively.
On to `CCCNC(=O)Nc1cccc(S(=O)(=O)Nc2cccc([C@@H](CC(=O)O)NC(=O)Nc3ccc(NC(=O)NCCN(C)CCN(C)CCN(C)CC(=O)N[C@@H](CC(N)=O)C(=O)N4CCC[C@H]4C(=O)N[C@H](C(=O)O[C@]4(CC)C(=O)OCc5c4cc4n(c5=O)Cc5cc6cc7c(cc6nc5-4)OCO7)C(C)C)cc3)c2)c1` [Compound 6, (7S)-7-ethyl-8,11-dioxo-7,8,11,13-tetrahydro-2H,10H-[1,3]dioxolo[4,5-g]pyrano[3′,4′:6,7] indolizino[1,2-b]quinolin-7-yl N-{2-[{2-[{2-[({4-[({(1R)-2-carboxy-1-[3-({3-[(propylcarbamoyl)amino]benzene-1-sulfonyl}amino)phenyl]ethyl}carbamoyl)amino]phenyl}carbamoyl)amino]ethyl}(methyl)amino]ethyl}(methyl)amino]ethyl}-N-methylglycyl-L-asparaginyl-L-prolyl-L-valinate], for which the IC50 in the assay on SUM149 [1] (SUM149 cells, with 10 nM elastase, 72 h, MTT, read-out: SUM149 IC50 w elastase) was less than 0.01 nM; in the assay with SUM149 [1] (SUM149 cells, without elastase, 72 h, MTT, read-out: SUM149 IC50 w/o) it was 0.1 to 1 nM; in the assay with NCI H292 [2] (NCI H292 cells, with 10 nM elastase, 72 h, MTT, read-out: NCI H292 IC 50 w elastase), 0.01 to 0.1 nM; in the assay with NCI H292 [2] (NCI H292 cells, without elastase, 72 h, MTT, read-out: NCI H292 IC 50 w/o), 1.1 to 10 nM; in the assay with 786-O [3] (786-O cells, with 10 nM elastase, 72 h, MTT, read-out: 786-O IC50 w elastase) it was 0.01 to 0.1 nM; with 786-O [3] (786-O cells, without elastase, 72 h, MTT, read-out: 786-O IC50 w/o) it was 1.1 to 10 nM. Moreover, the IC50 in the assay with HT29 [4] (HT29 cells, with 10 nM elastase, 72 h, MTT, read-out: HT29 IC50 w elastase) was in the range of 0.01 to 0.1 nM; with HT29 [4] (HT29 cells, without elastase, 72 h, MTT, read-out: HT29 IC50 w/o) it was 1.1 to 10 nM.
Take `CCCNC(=O)Nc1cccc(S(=O)(=O)Nc2cccc([C@H](CC(=O)O)NC(=O)Nc3ccc(NC(=O)NCCOCCOCCOCCC(=O)N[C@@H](CC(=O)O)C(=O)N4CCC[C@H]4C(=O)N[C@H](C(=O)O[C@]4(CC)C(=O)OCc5c4cc4n(c5=O)Cc5c-4nc4cc(F)c(C)c6c4c5[C@@H](NC(C)=O)CC6)C(C)C)cc3)c2)c1` [Compound 13, disodium (1S,9S)-1-acetamido-9-ethyl-5-fluoro-4-methyl-10,13-dioxo-2,3,9,10,13,15-hexahydro-1H,12H-benzo[de]pyrano[3′,4′:6,7]indolizino[1,2-b]quinolin-9-yl 1-[(2S)-2-(carboxylatomethyl)-17-{4-[({(1S)-2-carboxylato-1-[3-({3-[(propylcarbamoyl)amino]benzene-1-sulfonyl}amino)phenyl]ethyl}carbamoyl)amino]anilino}-4,17-dioxo-7,10,13-trioxa-3,16-diazaheptadecanan-1-oyl]-L-prolyl-L-valinate]: the IC50 in the assay with SUM149 [1] (setting [9]) is 0.01 to 0.1 nM; in the assay with SUM149 [1] (read-out: SUM149 IC50 w/o), 1.1 to 10 nM; in the assay with NCI H292 [2] (setting [10]), 0.01 to 0.1 nM; in the assay with NCI H292 [2] (read-out: NCI H292 IC 50 w/o), 1.1 to 10 nM; in the assay on 786-O [3] (setting [11]), 0.01 to 0.1 nM; in the assay on 786-O [3] (read-out: 786-O IC50 w/o) it was 10 to 100 nM. In addition, the values for the IC50 with HT29 [4] (read-out: HT29 IC50 w elastase) and in the assay with HT29 [4] (read-out: HT29 IC50 w/o) were 0.1 to 1 nM and more than 100 nM, respectively.
Consider `CCCNC(=O)Nc1cccc(S(=O)(=O)Nc2cccc([C@H](CC(=O)O)NC(=O)Nc3ccc(NC(=O)NCCOCCOCCOCCC(=O)N[C@@H](CC(=O)O)C(=O)N4CCC[C@H]4C(=O)N[C@H](C(=O)O[C@]4(CC)C(=O)OCc5c4cc4n(c5=O)Cc5cc6cc7c(cc6nc5-4)OCO7)C(C)C)cc3)c2)c1` [Compound 15, (7S)-7-ethyl-8,11-dioxo-7,8,11,13-tetrahydro-2H,10H-[1,3]dioxolo[4,5-g]pyrano [3′,4′:6,7]indolizino[1,2-b]quinolin-7-yl N-(14-{4-[({(1S)-2-carboxy-1-[3-({3-[(propylcarbamoyl)amino]benzene-1-sulfonyl}amino)phenyl]ethyl}carbamoyl)amino]anilino}-14-oxo-4,7,10-trioxa-13-azatetradecanan-1-oyl)-L-alpha-aspartyl-L-prolyl-L-valinate-bis sodium salt], for which the IC50 in the assay with SUM149 [1] (setting [9]) was less than 0.01 nM; in the assay with SUM149 [1] (read-out: SUM149 IC50 w/o), 1.1 to 10 nM; in the assay with NCI H292 [2] (setting [10]), 0.01 to 0.1 nM; with NCI H292 [2] (read-out: NCI H292 IC 50 w/o), 1.1 to 10 nM; with 786-O [3] (setting [11]), 0.01 to 0.1 nM; in the assay on 786-O [3] (read-out: 786-O IC50 w/o), 10 to 100 nM. Moreover, the IC50 in the assay with HT29 [4] (read-out: HT29 IC50 w elastase) fell in the range of 0.01 to 0.1 nM; in the assay with HT29 [4] (read-out: HT29 IC50 w/o) it was 10 to 100 nM.
With `CC[C@@]1(O)C(=O)OCc2c1cc1n(c2=O)Cc2c-1nc1cc(F)c(C)c3c1c2[C@@H](N(C)C)CC3` [Compound 18, (1S,9S)-1-(dimethylamino)-9-ethyl-5-fluoro-9-hydroxy-4-methyl-1,2,3,9,12,15-hexahydro-10H,13H-benzo[de]pyrano[3′,4′:6,7]indolizino[1,2-b]quinoline-10,13-dione], the AC50 in the assay on SUM149 [5] (SUM149, read-out: SUM149 AC50 +elastase) was 1.1 to 10 nM; in the assay on SUM149 [5] (SUM149, read-out: SUM149 AC50 −elastase), 1.1 to 10 nM; in the assay with NCI H292 [6] (Homo sapiens, NCI-H292, read-out: NCI H292 AC50 +elastase), 1.1 to 10 nM; in the assay with NCI H292 [6] (Homo sapiens, NCI-H292, read-out: NCI H292 AC50 −elastase) it was 1.1 to 10 nM; with 786-O [7] (Homo sapiens, 786-0, read-out: 786-O AC50 +elastase), 11 to 100 nM; with 786-O [7] (Homo sapiens, 786-0, read-out: 786-O AC50 −elastase) it was 11 to 100 nM. Besides, the AC50 was 1.1 to 10 nM with HT29 [8] (Homo sapiens, HT-29, read-out: HT29 AC50 +elastase) and 11 to 100 nM in the assay with HT29 [8] (Homo sapiens, HT-29, read-out: HT29 AC50 −elastase).
As to `CCCNC(=O)Nc1cccc(S(=O)(=O)Nc2cccc([C@@H](CC(=O)O)NC(=O)Nc3ccc(NC(=O)NCCOCCOCCOCCC(=O)N[C@@H](CC(=O)O)C(=O)N4CCC[C@H]4C(=O)N[C@H](C(=O)O[C@]4(CC)C(=O)OCc5c4cc4n(c5=O)Cc5c-4nc4cc(F)c(C)c6c4c5[C@@H](N(CC)CC)CC6)C(C)C)cc3)c2)c1` [Compound 19, (1S,9S)-1-(diethylamino)-9-ethyl-5-fluoro-4-methyl-10,13-dioxo-2,3,9,10,13,15-hexahydro-1H,12H-benzo[de]pyrano[3′,4′:6,7]indolizino[1,2-b]quinolin-9-yl N-(14-{4-[({(1R)-2-carboxy-1-[3-({3-[(propylcarbamoyl)amino]benzene-1-sulfonyl}amino)phenyl]ethyl}carbamoyl)amino]anilino}-14-oxo-4,7,10-trioxa-13-azatetradecanan-1-oyl)-L-alpha-aspartyl-L-prolyl-L-valinate], the AC50 in the assay with SUM149 [5] (SUM149 cells, Version 2, with elastase, activity concentration at −50%, read-out: SUM149 AC50 +elastase) was 1.1 to 10 nM; in the assay with SUM149 [5] (SUM149 cells, Version 2, without elastase, activity concentration at −50%, read-out: SUM149 AC50 −elastase) it was more than 100 nM; with NCI H292 [6] (NCI H292 cells, Version 2, with elastase, activity concentration at −50%, read-out: NCI H292 AC50 +elastase), 11 to 100 nM; with NCI H292 [6] (NCI H292 cells, Version 2, without elastase, activity concentration at −50%, read-out: NCI H292 AC50 −elastase) it was more than 100 nM; in the assay on 786-O [7] (786-O cells, Version 2, with elastase, activity concentration at −50%, read-out: 786-O AC50 +elastase), 1.1 to 10 nM; with 786-O [7] (786-O cells, Version 2, without elastase, activity concentration at −50%, read-out: 786-O AC50 −elastase) it was more than 100 nM. The AC50 with HT29 [8] (HT29 cells, Version 2, with elastase, activity concentration at −50%, read-out: HT29 AC50 +elastase) is 11 to 100 nM; in the assay on HT29 [8] (HT29 cells, Version 2, without elastase, activity concentration at −50%, read-out: HT29 AC50 −elastase), more than 100 nM.
